From the NIST ThermoML archive (doi:10.1016/j.jct.2015.02.024)
± gives the expanded uncertainty stated by the source.

Test: activity coefficient (dimensionless); of the first substance listed, at infinite dilution; xn = mol fraction of the nth substance listed
Conditions: 101 kPa, Liquid, Chromatography, x1 = 0

| Compound | activity coefficient (318.15 K) | activity coefficient (328.15 K) | activity coefficient (338.15 K) | activity coefficient (348.15 K) | activity coefficient (358.15 K) | activity coefficient (368.15 K) | activity coefficient (298.15 K) | activity coefficient (308.15 K) |
| --- | --- | --- | --- | --- | --- | --- | --- | --- |
| Cc1ccccc1C [1,2-dimethylbenzene] + C[N+]1(CCCO)CCOCC1.O=S(=O)([N-]S(=O)(=O)C(F)(F)F)C(F)(F)F | 5.73 ± 0.39 | 5.76 ± 0.39 | 5.78 ± 0.39 | 5.81 ± 0.4 | 5.83 ± 0.4 | 5.86 ± 0.4 | – | – |
| Cc1cccc(C)c1 [1,3-dimethylbenzene] + C[N+]1(CCCO)CCOCC1.O=S(=O)([N-]S(=O)(=O)C(F)(F)F)C(F)(F)F | 6.44 ± 0.44 | 6.55 ± 0.45 | 6.64 ± 0.45 | 6.73 ± 0.46 | 6.85 ± 0.47 | 6.92 ± 0.47 | – | – |
| Cc1ccc(C)cc1 [1,4-dimethylbenzene] + C[N+]1(CCCO)CCOCC1.O=S(=O)([N-]S(=O)(=O)C(F)(F)F)C(F)(F)F | 6.65 ± 0.45 | 6.7 ± 0.5 | 6.74 ± 0.46 | 6.78 ± 0.46 | 6.79 ± 0.46 | 6.84 ± 0.47 | – | – |
| C1COCCO1 [1,4-dioxane] + C[N+]1(CCCO)CCOCC1.O=S(=O)([N-]S(=O)(=O)C(F)(F)F)C(F)(F)F | 0.6 ± 0.042 | 0.653 ± 0.045 | 0.709 ± 0.047 | 0.758 ± 0.05 | 0.811 ± 0.052 | 0.859 ± 0.055 | – | – |
| C=CCCCCCCCC [1-decene] + C[N+]1(CCCO)CCOCC1.O=S(=O)([N-]S(=O)(=O)C(F)(F)F)C(F)(F)F | 307 ± 21 | 269 ± 18 | 243 ± 17 | 218 ± 15 | 194 ± 13 | 176 ± 12 | – | – |
| C=CCCCCC [1-heptene] + C[N+]1(CCCO)CCOCC1.O=S(=O)([N-]S(=O)(=O)C(F)(F)F)C(F)(F)F | 86.6 ± 5.9 | 75.8 ± 5.2 | 69.3 ± 4.7 | 62.2 ± 4.3 | 55.7 ± 3.8 | 51.1 ± 3.5 | – | – |
| C#CCCCCC [1-heptyne] + C[N+]1(CCCO)CCOCC1.O=S(=O)([N-]S(=O)(=O)C(F)(F)F)C(F)(F)F | 20 ± 1.4 | 19.2 ± 1.3 | 18.4 ± 1.3 | 17.6 ± 1.2 | 16.9 ± 1.2 | 16.3 ± 1.1 | – | – |
| C#CCCCC [1-hexyne] + C[N+]1(CCCO)CCOCC1.O=S(=O)([N-]S(=O)(=O)C(F)(F)F)C(F)(F)F | 12.5 ± 0.9 | 11.9 ± 0.8 | 11.6 ± 0.8 | 11.2 ± 0.8 | 10.7 ± 0.7 | 10.4 ± 0.7 | – | – |
| CCC[N+](=O)[O-] [1-nitropropane] + C[N+]1(CCCO)CCOCC1.O=S(=O)([N-]S(=O)(=O)C(F)(F)F)C(F)(F)F | 1.24 ± 0.08 | 1.26 ± 0.08 | 1.28 ± 0.08 | 1.3 ± 0.08 | 1.32 ± 0.09 | 1.34 ± 0.09 | – | – |
| C#CCCCCCC [1-octyne] + C[N+]1(CCCO)CCOCC1.O=S(=O)([N-]S(=O)(=O)C(F)(F)F)C(F)(F)F | 33 ± 2.3 | 31.3 ± 2.1 | 29.6 ± 2 | 28 ± 1.9 | 26.7 ± 1.8 | 25.5 ± 1.7 | – | – |
| C=CCCC [1-pentene] + C[N+]1(CCCO)CCOCC1.O=S(=O)([N-]S(=O)(=O)C(F)(F)F)C(F)(F)F | 38.3 ± 2.6 | 30.6 ± 2.1 | – | – | – | – | 64.5 ± 4.4 | 49.4 ± 3.4 |
| C#CCCC [1-pentyne] + C[N+]1(CCCO)CCOCC1.O=S(=O)([N-]S(=O)(=O)C(F)(F)F)C(F)(F)F | 7.77 ± 0.53 | 7.48 ± 0.51 | 7.24 ± 0.49 | 6.99 ± 0.48 | 6.79 ± 0.46 | 6.63 ± 0.45 | – | – |
| CC(C)CC(C)(C)C [2,2,4-trimethylpentane] + C[N+]1(CCCO)CCOCC1.O=S(=O)([N-]S(=O)(=O)C(F)(F)F)C(F)(F)F | 272 ± 19 | 226 ± 16 | 191 ± 13 | 165 ± 11 | 140 ± 10 | 125 ± 9 | – | – |
| CCOC(C)(C)C [2-ethoxy-2-methylpropane] + C[N+]1(CCCO)CCOCC1.O=S(=O)([N-]S(=O)(=O)C(F)(F)F)C(F)(F)F | 16.1 ± 1.1 | 15.8 ± 1.1 | 15.6 ± 1.1 | 15.2 ± 1 | 15 ± 1 | 14.8 ± 1 | – | – |
| CCC(C)(C)OC [2-methoxy-2-methylbutane] + C[N+]1(CCCO)CCOCC1.O=S(=O)([N-]S(=O)(=O)C(F)(F)F)C(F)(F)F | 8.7 ± 0.59 | 8.75 ± 0.6 | 8.8 ± 0.6 | 8.86 ± 0.6 | 8.89 ± 0.61 | 8.93 ± 0.61 | – | – |
| COC(C)(C)C [2-methoxy-2-methylpropane] + C[N+]1(CCCO)CCOCC1.O=S(=O)([N-]S(=O)(=O)C(F)(F)F)C(F)(F)F | 4.94 ± 0.34 | 5.07 ± 0.35 | 5.22 ± 0.36 | 5.35 ± 0.36 | 5.45 ± 0.37 | 5.58 ± 0.38 | – | – |
| CC(C)CO [2-methyl-1-propanol] + C[N+]1(CCCO)CCOCC1.O=S(=O)([N-]S(=O)(=O)C(F)(F)F)C(F)(F)F | 3.25 ± 0.22 | 3.08 ± 0.21 | 2.94 ± 0.2 | 2.78 ± 0.19 | 2.65 ± 0.18 | 2.54 ± 0.17 | – | – |
| CC(C)(C)O [2-methylpropan-2-ol] + C[N+]1(CCCO)CCOCC1.O=S(=O)([N-]S(=O)(=O)C(F)(F)F)C(F)(F)F | 2.09 ± 0.14 | 2.06 ± 0.14 | 2.03 ± 0.14 | 2 ± 0.14 | 1.97 ± 0.13 | 1.95 ± 0.13 | – | – |
| CCC(C)CC [3-methylpentane] + C[N+]1(CCCO)CCOCC1.O=S(=O)([N-]S(=O)(=O)C(F)(F)F)C(F)(F)F | 152 ± 10 | – | – | – | – | – | 273 ± 19 | 201 ± 14 |
| C=C(C)c1ccccc1 [(1-methylethenyl)benzene] + C[N+]1(CCCO)CCOCC1.O=S(=O)([N-]S(=O)(=O)C(F)(F)F)C(F)(F)F | 5.97 ± 0.41 | 6.12 ± 0.42 | 6.28 ± 0.43 | 6.41 ± 0.44 | 6.55 ± 0.45 | 6.65 ± 0.45 | – | – |
| CC(C)=O [acetone] + C[N+]1(CCCO)CCOCC1.O=S(=O)([N-]S(=O)(=O)C(F)(F)F)C(F)(F)F | 0.486 ± 0.037 | 0.517 ± 0.039 | 0.543 ± 0.04 | 0.572 ± 0.041 | 0.596 ± 0.042 | 0.63 ± 0.04 | – | – |
| CC#N [acetonitrile] + C[N+]1(CCCO)CCOCC1.O=S(=O)([N-]S(=O)(=O)C(F)(F)F)C(F)(F)F | 0.479 ± 0.037 | 0.495 ± 0.038 | 0.513 ± 0.038 | 0.528 ± 0.039 | 0.545 ± 0.04 | 0.561 ± 0.04 | – | – |
| c1ccccc1 [benzene] + C[N+]1(CCCO)CCOCC1.O=S(=O)([N-]S(=O)(=O)C(F)(F)F)C(F)(F)F | 2.53 ± 0.17 | 2.56 ± 0.17 | 2.58 ± 0.18 | 2.6 ± 0.18 | 2.63 ± 0.18 | 2.65 ± 0.18 | – | – |
| CCCCO [butan-1-ol] + C[N+]1(CCCO)CCOCC1.O=S(=O)([N-]S(=O)(=O)C(F)(F)F)C(F)(F)F | 3.23 ± 0.22 | 3.07 ± 0.21 | 2.96 ± 0.2 | 2.84 ± 0.19 | 2.73 ± 0.19 | 2.64 ± 0.18 | – | – |
